# Experimental data as given in PubChem BioAssay AID194 (DTP/NCI, 2004).
# “And” between values parts separate entries of the source, which are not always exact repeats. Identical values can stand only once. Records with an inconclusive call do not appear.
# Test system: BDF1 mice, B16 melanoma s.c., survival/tumor T/C
# Test: NCI In Vivo Anticancer Drug Screen. Data for tumor model B16 Melanoma (subcutaneous) in B6D2F1 (BDF1) mice
# Settings: endpoint: median survival time, higher = longer survival
# Experimental: The antitumor activity of compounds was measured in mice bearing transplantable tumors. Survival or tumor size were measured and the results are expressed as the measurement made in the treated group (T) divided by the measurement made in the vehicle treated control group (C). The tumor model used in this assay is B16 Melanoma (subcutaneous) in B6D2F1 (BDF1) mice
compound,measurement,setting,value
N[C@H](C(=O)O)[C@@H]1CC(Cl)=NO1,T/C,"dose: 1.0 mg/kg/injection, schedule: Q01DX009 (ip), vehicle: saline",87 % of control and 114 % of control
same,T/C,"dose: 1.4 mg/kg/injection, schedule: Q01DX009 (ip), vehicle: saline",116 % of control
same,T/C,"dose: 2.0 mg/kg/injection, schedule: Q01DX009 (ip), vehicle: saline",95 % of control and 105 % of control
same,T/C,"dose: 2.1 mg/kg/injection, schedule: Q01DX009 (ip), vehicle: saline",120 % of control
same,T/C,"dose: 3.2 mg/kg/injection, schedule: Q01DX009 (ip), vehicle: saline",124 % of control
same,T/C,"dose: 4.0 mg/kg/injection, schedule: Q01DX009 (ip), vehicle: saline",90 % of control
same,T/C,"dose: 8.0 mg/kg/injection, schedule: Q01DX009 (ip), vehicle: saline",108 % of control
same,T/C,"dose: 16.0 mg/kg/injection, schedule: Q01DX009 (ip), vehicle: saline",101 % of control
same,T/C,"dose: 27.0 mg/kg/injection, schedule: Q04DX003 (ip), vehicle: saline",120 % of control
same,T/C,"dose: 40.0 mg/kg/injection, schedule: Q01DX001 (ip), vehicle: saline",103 % of control
same,T/C,"dose: 40.0 mg/kg/injection, schedule: Q04DX003 (ip), vehicle: saline",119 % of control
same,T/C,"dose: 60.0 mg/kg/injection, schedule: Q01DX001 (ip), vehicle: saline",113 % of control
same,T/C,"dose: 60.0 mg/kg/injection, schedule: Q04DX003 (ip), vehicle: saline",124 % of control
same,T/C,"dose: 90.0 mg/kg/injection, schedule: Q01DX001 (ip), vehicle: saline",112 % of control
O=C(NP(=O)(N1CC1)N1CC1)c1cc(I)ccc1I,T/C,"dose: 1.0 mg/kg/injection, schedule: Q02DX009 (ip), vehicle: saline with Tween-80",96 % of control
same,T/C,"dose: 1.0 mg/kg/injection, schedule: Q02DX009 (ip), vehicle: saline",103 % of control
same,T/C,"dose: 4.0 mg/kg/injection, schedule: Q01DX001 (oral), vehicle: saline with Tween-80",98 % of control
same,T/C,"dose: 4.0 mg/kg/injection, schedule: Q02DX009 (ip), vehicle: saline with Tween-80",95 % of control
same,T/C,"dose: 4.0 mg/kg/injection, schedule: Q02DX009 (ip), vehicle: saline",180 % of control
same,T/C,"dose: 8.0 mg/kg/injection, schedule: Q01DX001 (oral), vehicle: saline with Tween-80",92 % of control
same,T/C,"dose: 8.0 mg/kg/injection, schedule: Q02DX009 (ip), vehicle: saline with Tween-80",88 % of control
same,T/C,"dose: 8.0 mg/kg/injection, schedule: Q02DX009 (ip), vehicle: saline",153 % of control
same,T/C,"dose: 16.0 mg/kg/injection, schedule: Q01DX001 (oral), vehicle: saline with Tween-80",91 % of control
same,T/C,"dose: 16.0 mg/kg/injection, schedule: Q02DX009 (ip), vehicle: saline with Tween-80",117 % of control
same,T/C,"dose: 16.0 mg/kg/injection, schedule: Q02DX009 (ip), vehicle: saline",180 % of control
same,T/C,"dose: 32.0 mg/kg/injection, schedule: Q01DX001 (oral), vehicle: saline with Tween-80",93 % of control
same,T/C,"dose: 32.0 mg/kg/injection, schedule: Q02DX009 (ip), vehicle: saline",97 % of control
same,T/C,"dose: 64.0 mg/kg/injection, schedule: Q01DX001 (oral), vehicle: saline with Tween-80",105 % of control
same,T/C,"dose: 512.0 mg/kg/injection, schedule: Q01DX001 (oral), vehicle: saline with Tween-80",88 % of control
CSCS(=O)C[C@H](CO)NC(=O)/C=C/c1c(C)[nH]c(=O)[nH]c1=O (stereo partly drawn),T/C,"dose: 0.08 mg/kg/injection, schedule: Q01DX009 (ip), vehicle: water",90 % of control
same,T/C,"dose: 0.15 mg/kg/injection, schedule: Q01DX009 (ip), vehicle: water",112 % of control
same,T/C,"dose: 0.3 mg/kg/injection, schedule: Q01DX009 (ip), vehicle: water",96 % of control
same,T/C,"dose: 0.6 mg/kg/injection, schedule: Q01DX009 (ip), vehicle: water",100 % of control
